From publication PMC7417534, “Cytochrome P450 inhibition potential and initial genotoxic evaluation of 14-O-[(4,6-diaminopyrimidine-2-yl)thioacetyl] mutilin” (Scientific Reports, 2020)

Experiments:
CYP2C9 mRNA = CYP2C9 mRNA expression in Hep G2 cells (real-time PCR); format: cell-based, human; conditions: 2 and 4 h, 4.98, 0.16 and 0.08 mM
Description: The logarithmic growth phase Hep G2 cells were seeded into 12-well plastic plates at a density of […]. After incubation at 37 °C under 5% CO2 for 24 h, the media were then replaced with 1 mL of serial dilutions of the DPTM (4.98, 0.16 and 0.08 mM) in fresh media. When cells were incubated for 2, 4 and 12 h at 37 °C under 5% CO2, the RNA was isolated using the Trizol reagent according to the manufacturer’s protocol. Total RNA (5 μL) was transcribed into cDNA by using the PrimeScript RT reagent Kit (Perfect Real Time). The obtained cDNA (5 μL) was added for 45 cycles of PCR amplification to detect the mRNA expression (the primers and sequences used herein were given in Table 3) using the ABI Villa TM7Dx real-time PCR system (Gaithersburg, USA). Glyceraldehyde-3-phosphate dehydrogenase (GAPDH) was used as reference gene. All reactions were performed in a final volume of 20 μL (10 μL of 2 × SYBR Green Real-time PCR Master Mix, 2 μL of cDNA and 2 μL of the primers and 6 μL DEPC water) and executed in triplicate.

[1] = tested on: S. typhimurium strains TA97, TA98, TA100, TA102 and TA1535; experiment: Ames test, overall verdict over five strains; format: cell-based, Salmonella typhimurium; conditions: with or without S9, up to 3.98 μmol/plate
Excerpt: S. typhimurium strains TA97, TA98, TA100, TA102 and TA1535 were stored and maintained as provided in the standard protocol. Each of the strains was checked for their genetic integrity prior to the experiment, and tested for biotin dependence, histidine dependence, biotin and histidine dependence, rfa marker (crystal violet) and presence of the plasmid pKM101 (ampicillin resistance) or pAQ1 (tetracycline resistance). Different strains were used to identify different types of mutations.
The test was carried out at five different concentrations of DPTM. […] Then 1 mL solution was diluted with distilled water by two fold. […] The negative control used in this experiment was 1 mL DMSO which was directly incorporated into 9 mL melted top agar.
The Ames test of DPTM was conducted as described in the literatures[42],[43] with some modifications. Briefly, 1 mL of strain was inoculated into 5 mL of nutrient broth, followed by incubating overnight at 37 °C. The mixture comprised respective strains, drug, negative and positive controls with the S9 for testing in the presence of metabolic activation system. For testing without S9, 1 × phosphate buffer saline (PBS, pH 7.4) replaced the S9 mix. The obtained mixtures were added into the tube, mixed well and incubated at 37 °C for 20 min. […] The results were expressed as the number of revertant colonies per plate. […]

CYP2C9 = target: T1, CYP2C9 (Homo sapiens, UniProt P11712); experiment: Cocktail CYP inhibition in human liver microsomes, CYP2C9 (tolbutamide); format: in vitro ADME; conditions: cocktail method, read-out: IC50 values, CYP2C9 in HLMs
T1 construct: containing 100 μL RLMs or HLMs; tissue Research Institute for Liver Diseases (Shanghai) Co., Ltd; host or cells: pooled human liver microsomes
Description: (§1) We used the cocktail method to study the inhibition activities of DPTM against CYP enzymes in RLMs and HLMs with slight modification. DPTM (250 μmol) was dissolved in 1.25 mL methanol to a solution and then diluted with methanol and water to 2, 10, 20, 100, 200, 400, 1,000 and 2000 μM, respectively. The obtained serial dilutions (10 μL) were added to the incubation mixtures (200 μL total volume), containing 100 μL RLMs or HLMs (final concentration was 5 μg/μL, respectively), 10 μL glucose-6-phosphate (final concentration was 1 mM), 10 μL glucose-6-phosphate dehydrogenase (final concentration was 0.1 U/L), 20 μL potassium phosphate buffer (final concentration was 0.01 M) and 20 μL MgCl2 (final concentration was 2 mM), to give the final concentrations were 0.1, 0.5, 1, 5 10, 20, 50, and 100 μM, respectively. For the groups that in the absence of DPTM, 10 μL methanol (1%) replaced the DPTM and was added to the incubation mixtures. […] The final concentration of methanol in all the incubation mixtures, including the blank group, was […]. […] The determined metabolic substrates were used for calculating the relative enzyme activity (Erel) by the following formula: Erel (%) = Ci(n)/Ci(0) × 100%, in which Ci(n) was the determined metabolic substrates in the presence of varying concentrations of DPTM and Ci(0) was the determined metabolic substrates in the absence of DPTM. […]

CYP2E1 = target: T2, CYP2E1 (Homo sapiens, UniProt P05181); experiment: Cocktail CYP inhibition in human liver microsomes, CYP2E1 (chlorzoxazone); format: in vitro ADME; conditions: cocktail method, read-out: IC50 values, CYP2E1 in HLMs
T2 construct: containing 100 μL RLMs or HLMs; tissue Research Institute for Liver Diseases (Shanghai) Co., Ltd; host or cells: pooled human liver microsomes
Description: as §1

[2] = MTT cytotoxicity assay on Hep G2 cells; format: cell-based, human; conditions: human, DPTM 4.98 mM, read-out: cell viability
Description: (§2) Intrinsic toxicity of DPTM was conducted as described in the literature[36]–[38] with some modifications. […] After proliferating to logarithmic growth phase at 37 °C under 5% CO2, cells were seeded to a new 96-well plate with a density of […] and cultured for 24 h at the same condition. The media were replaced with 100 μL of serial dilutions of DPTM (10 mg DPTM was dissolved in 1 mL 1% DMSO to a solution and then diluted two-fold with distilled water to provide 19.91, 9.96, 4.98, 2.49, 1.25, 0.62, 0.31, 0.16 and 0.08 mM serial dilutions). The blank group only used 1% DMSO to replace the media. The obtained mixture was incubated for 24 h. After that, all media in cells were removed and 20 μL of MTT reagent was added for an additional 4 h. Then, supernatant fraction was removed and 100 μL dimethyl sulfoxide (DMSO) was added, followed by incubation at 37 °C for 15 min. The absorbance of each well was determined by a spectrophotometer at dual wavelengths of 570 and 279 nm for the background. The viability percentage was calculated by the following formula: cell viability % = (ODsample − ODblank/ODcontrol − ODblank) × 100. A sigmoid-shaped curve was fitted to the data, and the IC50 was calculated by fitting the Hill equation to the data with nonlinear regression (least-squares best fit modelling) using GraphPad Prism 4 (GraphPad Software Inc., San Diego, USA). […]

Hep G2 cells = experiment: MTT cytotoxicity assay on Hep G2 cells; format: cell-based, human; conditions: Homo sapiens, HepG2, 24 h incubation, read-out: IC50 value, cell viability (MTT)
Description: as §2

T2 sequence (P05181 whole entry): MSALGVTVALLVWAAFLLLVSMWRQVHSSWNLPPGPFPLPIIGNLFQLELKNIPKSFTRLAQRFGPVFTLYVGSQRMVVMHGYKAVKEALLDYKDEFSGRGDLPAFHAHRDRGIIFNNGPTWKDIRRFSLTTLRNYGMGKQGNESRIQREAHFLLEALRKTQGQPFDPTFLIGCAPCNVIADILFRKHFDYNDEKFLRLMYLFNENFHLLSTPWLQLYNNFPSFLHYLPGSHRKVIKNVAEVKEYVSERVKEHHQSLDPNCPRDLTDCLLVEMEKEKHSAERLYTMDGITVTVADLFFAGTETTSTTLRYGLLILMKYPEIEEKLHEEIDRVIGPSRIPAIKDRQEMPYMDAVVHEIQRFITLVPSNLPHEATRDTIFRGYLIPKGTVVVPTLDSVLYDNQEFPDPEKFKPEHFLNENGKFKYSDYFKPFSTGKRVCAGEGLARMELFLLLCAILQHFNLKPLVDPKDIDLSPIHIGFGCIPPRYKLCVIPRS
T1 sequence (P11712 whole entry): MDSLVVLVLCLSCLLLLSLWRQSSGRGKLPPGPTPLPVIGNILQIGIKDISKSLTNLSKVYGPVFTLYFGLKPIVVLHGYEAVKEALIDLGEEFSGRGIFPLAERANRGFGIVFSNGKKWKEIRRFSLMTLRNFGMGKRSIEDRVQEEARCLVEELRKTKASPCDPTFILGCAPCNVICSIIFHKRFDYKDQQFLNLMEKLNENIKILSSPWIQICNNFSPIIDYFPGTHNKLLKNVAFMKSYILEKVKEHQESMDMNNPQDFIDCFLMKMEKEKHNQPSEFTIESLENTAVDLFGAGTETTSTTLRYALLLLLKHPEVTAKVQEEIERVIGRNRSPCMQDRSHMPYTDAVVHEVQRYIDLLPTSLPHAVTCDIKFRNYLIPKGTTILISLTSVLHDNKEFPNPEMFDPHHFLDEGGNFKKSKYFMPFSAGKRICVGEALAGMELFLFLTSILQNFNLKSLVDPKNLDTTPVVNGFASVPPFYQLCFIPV

C=CC1(C)CC(OC(=O)CSc2nc(N)cc(N)n2)C2(C)C(C)CCC3(CCC(=O)C32)C(C)C1O (stereo not drawn) [DPTM, 14-O-[(4,6-Diaminopyrimidine-2-yl)thioacetyl] mutilin]
CYP2C9 mRNA expression versus control (CYP2C9 mRNA): significantly increase | mutagenicity verdict (Ames test) [1]: should not be considered as a mutagen | IC50 (CYP2C9): > 100 µM | IC50 (CYP2E1): 67 ± 6 µM | viability at 24 h, 4.98 mM [2]: 79% | IC50 (Hep G2 cells): 10000 ± 2000 µM
